Read-outs that look alike come from different tables or passages of the source.
Experiments:
corn earworm larvae = assay: Leaf dip test, corn earworm larvae; format: in vivo; conditions: Helicoverpa zea, foliar, Bta 27 ppm, chlorantraniliprole 0.0009 ppm, mixture 27 ppm + 0.0009 ppm, read-out: % Efficacy
Description: (§1) For these tests, standardized laboratory leaf dip methods were used to inoculate plant material with treatment(s). Dry, treated leaves were placed into Petri dishes (100×25 mm) containing filter paper wetted with 500 μl of distilled H2O (“dH2O”). Each dish was then infested with between 5 and 10 larvae, dependent on species. Efficacy ratings were taken at specified intervals. Synergy ratings were calculated for each test.
(§2) % Cexp=A+B−(AB/100), where % Cexp is the expected efficacy and “in which A and B are the control levels given by the single [insecticides]. If the ratio between the experimentally observed efficacy of the mixture Cobs and the expected efficacy of the mixture is greater than 1, synergistic interactions are present in the mixture.” (Gisi, Synergisitic Interaction of Fungicides in Mixtures, The American Phytopathological Society, 86:11, 1273-1279, 1996). Adopting a conservative approach, Applicant determined synergy to be present at ratios of ≧1.15.
In this study, the response of corn earworm larvae to amounts of Bacillus thuringiensis subsp. aizawai and chlorantraniliprole was observed.
(§3) Bacillus thuringiensis subsp. aizawai was applied at a concentration of 27 ppm (27 μg/ml). Chlorantraniliprole was applied at a concentration of 0.0009 ppm (0.0009 μg/ml). […]

soybean looper larvae = assay: Leaf dip test, soybean looper larvae; format: in vivo, Chrysodeixis includens; conditions: foliar, Bta 27 ppm, chlorantraniliprole 0.0009 ppm, mixture 27 ppm + 0.0009 ppm, read-out: % Efficacy
Description: as §1, §2
In this study, the response of soybean looper larvae to amounts of Bacillus thuringiensis subsp. aizawai and chlorantraniliprole was observed.
as §3

sugarcane borer larvae = assay: Leaf dip test, sugarcane borer larvae; format: in vivo; conditions: foliar, Bta 27 ppm, chlorantraniliprole 0.0009 ppm, mixture 27 ppm + 0.0009 ppm, read-out: % Efficacy
Description: as §1, §2
In this study, the response of sugarcane borer larvae to amounts of Bacillus thuringiensis subsp. aizawai and chlorantraniliprole was observed.
as §3

[1] = system: southwestern corn borer larvae; assay: Leaf dip test, southwestern corn borer larvae; format: in vivo, Diatraea grandiosella; conditions: foliar, Bta 2.7 ppm, chlorantraniliprole 0.0009 ppm, mixture 2.7 ppm + 0.0009 ppm, read-out: % Efficacy
Description: as §1, §2
In this study, the response of southwestern corn borer larvae to amounts of Bacillus thuringiensis subsp. aizawai and chlorantraniliprole was observed.
(§4) Bacillus thuringiensis subsp. aizawai was applied at a concentration of 2.7 ppm (2.7 μg/ml). Chlorantraniliprole was applied at a concentration of 0.0009 ppm (0.0009 μg/ml). […]

beet armyworm larvae = assay: Leaf dip test, beet armyworm larvae; format: in vivo; conditions: Spodoptera exigua, foliar, Bta 2.7 ppm, chlorantraniliprole 0.0009 ppm, mixture 2.7 ppm + 0.0009 ppm, read-out: % Efficacy
Description: as §1, §2
In this study, the response of beet armyworm larvae to amounts of Bacillus thuringiensis subsp. aizawai and chlorantraniliprole was observed.
as §4

diamondback moth larvae = assay: Leaf dip test, diamondback moth larvae; format: in vivo; conditions: Plutella xylostella, foliar, Bta 2.7 ppm, chlorantraniliprole 0.0009 ppm, mixture 2.7 ppm + 0.0009 ppm, read-out: % Efficacy
Description: as §1
In this study, the response of diamondback moth larvae to synergistic amounts of Bacillus thuringiensis subsp. aizawai (“Bta”) and chlorantraniliprole was observed.
as §2, §4

cabbage looper larvae = assay: Leaf dip test, cabbage looper larvae; format: in vivo; conditions: Trichoplusia ni, foliar, Bta 2.7 ppm, chlorantraniliprole 0.0009 ppm, mixture 2.7 ppm + 0.0009 ppm, read-out: % Efficacy
Description: as §1, §2
In this study, the response of cabbage looper larvae to amounts of Bacillus thuringiensis subsp. aizawai and chlorantraniliprole was observed.
as §4

CNC(=O)c1cc(Cl)cc(C)c1NC(=O)c1cc(Br)nn1-c1ncccc1Cl [Chlorantraniliprole, chlorantraniliprole] was tested, and the Emax at 0.0009 ppm (corn earworm larvae; 24 h after treatment) was 10%, the Emax at 0.0009 ppm (corn earworm larvae; 48 h after treatment) was 7% and the Emax at 0.0009 ppm (soybean looper larvae; 24 h after treatment) was 10%. For the same compound, the Emax at 0.0009 ppm (soybean looper larvae; 48 h after treatment) was 13%, the Emax at 0.0009 ppm (sugarcane borer larvae; 24 h after treatment) was 6% and the Emax at 0.0009 ppm (sugarcane borer larvae; 48 h after treatment) was 12%. The Emax at 0.0009 ppm ([1]; 24 h after treatment) was 3%, the Emax at 0.0009 ppm ([1]; 48 h after treatment) was 7% and the Emax at 0.0009 ppm (beet armyworm larvae; 24 h after treatment) was 10%. It also gave an Emax at 0.0009 ppm (beet armyworm larvae; 48 h after treatment) of 13%, an Emax at 0.0009 ppm (diamondback moth larvae; 24 h after treatment) of 7% and an Emax at 0.0009 ppm (diamondback moth larvae; 48 h after treatment) of 7%. It also gave an Emax at 0.0009 ppm (cabbage looper larvae; 24 h after treatment) of 7% and an Emax at 0.0009 ppm (cabbage looper larvae; 48 h after treatment) of 10%.

From patent US9717253B2, “Synergistic Bacillus thuringiensis subsp. aizawai and chlorantraniliprole mixtures for diamondback moth, beet armyworm, soybean looper, corn earworm, cabbage looper, and southwestern corn borer control” (priority 2015, dated 2017)
